Assay results as given in US11634447B2 (priority 2012, dated 2023).
Like-named read-outs stand apart in the source and are kept apart here.

System: bacterial strain LF82 binding to the glycoprotein BSA-(Mannose)3
Experiment: Bacterial Binding Assay (BBA)
Format: cell-based, Escherichia coli
Summary of the method: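 Inhibition of LF82/luciferase E. coli adhesion is read as luminescence after washing off unbound cells. Compound and bacteria (10^7 per well) are co-incubated 40-75 min at room temperature on wells coated with 0.5-2 μg/mL BSA-(Man)3, with BSA-only wells as background; IC50 values derived.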

[1] = read-out: Bacterial Binding Assay IC50, LF82/Luciferase strain binding to BSA-(Man)3 coated plates, luminescence

SMILES	IC50 [1] [nM]	IC50 (LF82/Luciferase strain binding to BSA-(Man)3 coated plates, luminescence, read-out: Bacterial Binding Assay IC50) [nM]
OC[C@H]1O[C@H](C#Cc2ccc(C#C[C@H]3O[C@H](CO)[C@@H](O)[C@H](O)[C@@H]3O)c3nsnc23)[C@@H](O)[C@@H](O)[C@@H]1O [Compound 131, (2R,3S,4R,5S,6R)-2-(hydroxymethyl)-6-[2-[4-[2-[(2R,3S,4R,5S,6R)-3,4,5-trihydroxy-6-(hydroxymethyl)tetrahydropyran-2-yl]ethynyl]-2,1,3-benzothiadiazol-7-yl]ethynyl]tetrahydropyran-3,4,5-triol]	128	–
O=C(CN1CCOCC1)N1CCC2(CC1)c1cc(C#C[C@H]3O[C@H](CO)[C@@H](O)[C@H](O)[C@@H]3O)ccc1-c1ccc(C#C[C@H]3O[C@H](CO)[C@@H](O)[C@H](O)[C@@H]3O)cc12 [Compound 221, 1-[2,7-bis[2-[(2R,3S,4R,5S,6R)-3,4,5-trihydroxy-6-(hydroxymethyl)tetrahydropyran-2-yl]ethynyl]spiro[fluorene-9,4piperidine]-1l]-2-morpholino-ethanone]	0.04	–
OC[C@H]1O[C@H](C#Cc2ccc3c4ccc(C#C[C@H]5O[C@H](CO)[C@@H](O)[C@H](O)[C@@H]5O)cc4n(C4CCOCC4)c3c2)[C@@H](O)[C@@H](O)[C@@H]1O [Compound 184, (2R,3S,4R,5S,6R)-2-(hydroxymethyl)-6-[2-[9-tetrahydropyran-4-yl-7-[2-[(2R,3S,4R,5S,6R)-3,4,5-trihydroxy-6-(hydroxymethyl)tetrahydropyran-2-yl]ethynyl]carbazol-2-yl]ethynyl]tetrahydropyran-3,4,5-triol]	0.83	–
OCc1cc(C#C[C@H]2O[C@H](CO)[C@@H](O)[C@H](O)[C@@H]2O)c(CO)cc1C#C[C@H]1O[C@H](CO)[C@@H](O)[C@H](O)[C@@H]1O [Compound 85, (2R,3S,4R,5S,6R)-2-[2-[2,5-bis(hydroxymethyl)-4-[2-[(2R,3S,4R,5S,6R)-3,4,5-trihydroxy-6-(hydroxymethyl)tetrahydropyran-2-yl]ethynyl]phenyl]ethynyl]-6-(hydroxymethyl)tetrahydropyran-3,4,5-triol]	160	–
OC[C@H]1O[C@H](C#Cc2coc(C#C[C@H]3O[C@H](CO)[C@@H](O)[C@H](O)[C@@H]3O)n2)[C@@H](O)[C@@H](O)[C@@H]1O [Compound 129, (2R,3S,4R,5S,6R)-2-(hydroxymethyl)-6-[2-[2-[2-[(2R,3S,4R,5S,6R)-3,4,5-trihydroxy-6-(hydroxymethyl)tetrahydropyran-2-yl]ethynyl]oxazol-4-yl]ethynyl]tetrahydropyran-3,4,5-triol]	1240	–
OC[C@H]1O[C@H](C#Cc2ccc(-c3ccc(C#C[C@H]4O[C@H](CO)[C@@H](O)[C@H](O)[C@@H]4O)s3)s2)[C@@H](O)[C@@H](O)[C@@H]1O [Compound 128]	–	22
OC[C@H]1O[C@H](C#Cc2ccc3c(c2)[nH]c2cc(C#C[C@H]4O[C@H](CO)[C@@H](O)[C@H](O)[C@@H]4O)ccc23)[C@@H](O)[C@@H](O)[C@@H]1O [Compound 118, (2R,3S,4R,5S,6R)-2-(hydroxymethyl)-6-[2-[7-[2-[(2R,3S,4R,5S,6R)-3,4,5-trihydroxy-6-(hydroxymethyl)tetrahydropyran-2-yl]ethynyl]-9H-carbazol-2-yl]ethynyl]tetrahydropyran-3,4,5-triol]	22	–
OC[C@H]1O[C@H](C#Cc2ccc3c(c2)C(O)(CC2CCCC2)c2cc(C#C[C@H]4O[C@H](CO)[C@@H](O)[C@H](O)[C@@H]4O)ccc2-3)[C@@H](O)[C@@H](O)[C@@H]1O (stereo partly drawn) [Compound 214, (2R,3S,4R,5S,6R)-2-[2-[9-(cyclopentylmethyl)-9-hydroxy-7-[2-[(2R,3S,4R,5S,6R)-3,4,5-trihydroxy-6-(hydroxymethyl)tetrahydropyran-2-yl]ethynyl]fluoren-2-yl]ethynyl]-6-(hydroxymethyl)tetrahydropyran-3,4,5-triol]	0.45	–
NC1CCC2(CC1)c1cc(C#C[C@H]3O[C@H](CO)[C@@H](O)[C@H](O)[C@@H]3O)ccc1-c1ccc(C#C[C@H]3O[C@H](CO)[C@@H](O)[C@H](O)[C@@H]3O)cc12 [Compound 205]	0.39	–
OCCC1(O)c2cc(C#C[C@H]3O[C@H](CO)[C@@H](O)[C@H](O)[C@@H]3O)ccc2-c2ccc(C#C[C@H]3O[C@H](CO)[C@@H](O)[C@H](O)[C@@H]3O)cc21 [Compound 216, (2R,3S,4R,5S,6R)-2-[2-[9-hydroxy-9-(2-hydroxyethyl)-7-[2-[(2R,3S,4R,5S,6R)-3,4,5-trihydroxy-6-(hydroxymethyl)tetrahydropyran-2-yl]ethynyl]fluoren-2-yl]ethynyl]-6-(hydroxymethyl)tetrahydropyran-3,4,5-triol]	9.9	–
CN(C)CC(=O)c1c(C#C[C@H]2O[C@H](CO)[C@@H](O)[C@H](O)[C@@H]2O)ccc2c1C1(CCNCC1)c1cc(C#C[C@H]3O[C@H](CO)[C@@H](O)[C@H](O)[C@@H]3O)ccc1-2 [Compound 222, 1-[2,7-bis[2-[(2R,3S,4R,5S,6R)-3,4,5-trihydroxy-6-(hydroxymethyl)tetrahydropyran-2-yl]ethynyl]spiro[fluorene-9,4piperidine]-1yl]-2-(dimethylamino)ethanone]	0.08	–
COc1cc(C#C[C@H]2O[C@H](CO)[C@@H](O)[C@H](O)[C@@H]2O)ncc1C#C[C@H]1O[C@H](CO)[C@@H](O)[C@H](O)[C@@H]1O [Compound 134, (2R,3S,4R,5S,6R)-2-(hydroxymethyl)-6-[2-[4-methoxy-5-[2-[(2R,3S,4R,5S,6R)-3,4,5-trihydroxy-6-(hydroxymethyl)tetrahydropyran-2-yl]ethynyl]-2-pyridyl]ethynyl]tetrahydropyran-3,4,5-triol]	44	–
Cc1cc(-c2cnc(-c3ccc([C@H]4O[C@H](CO)[C@@H](O)[C@H](O)[C@@H]4O)c(C)c3)cn2)ccc1[C@H]1O[C@H](CO)[C@@H](O)[C@H](O)[C@@H]1O [Compound 153, (2R,3S,4R,5S,6R)-2-(hydroxymethyl)-6-[2-methyl-4-[5-[3-methyl-4-[(2R,3S,4R,5S,6R)-3,4,5-trihydroxy-6-(hydroxymethyl)tetrahydropyran-2-yl]phenyl]pyrazin-2-yl]phenyl]tetrahydropyran-3,4,5-triol]	92	–
OC[C@H]1O[C@H](C#Cc2ccc3c(c2)C(=NO)c2cc(C#C[C@H]4O[C@H](CO)[C@@H](O)[C@H](O)[C@@H]4O)ccc2-3)[C@@H](O)[C@@H](O)[C@@H]1O [Compound 163, 2,7-bis[2-[(2R,3S,4R,5S,6R)-3,4,5-trihydroxy-6-(hydroxymethyl)tetrahydropyran-2-yl]ethynyl]fluoren-9-one oxime]	18	–
N#Cc1cc(C#C[C@H]2O[C@H](CO)[C@@H](O)[C@H](O)[C@@H]2O)ccc1C#C[C@H]1O[C@H](CO)[C@@H](O)[C@H](O)[C@@H]1O [Compound 101, 2,5-bis[2-[(2R,3S,4R,5S,6R)-3,4,5-trihydroxy-6-(hydroxymethyl)tetrahydropyran-2-yl]ethynyl]benzonitrile]	21	–
Cc1cc(/C=C/c2ccc([C@H]3O[C@H](CO)[C@@H](O)[C@H](O)[C@@H]3O)c(C)c2)ccc1[C@H]1O[C@H](CO)[C@@H](O)[C@H](O)[C@@H]1O [Compound 159, (2R,3S,4R,5S,6R)-2-(hydroxymethyl)-6-[2-methyl-4-[(E)-2-[3-methyl-4-[(2R,3S,4R,5S,6R)-3,4,5-trihydroxy-6-(hydroxymethyl)tetrahydropyran-2-yl]phenyl]vinyl]phenyl]tetrahydropyran-3,4,5-triol]	46	–
